Test results: patent US7498292B2, “Combinatorial libraries of autoinducer analogs, autoinducer agonists and antagonists, and methods of use thereof” (The Research Foundation of State University of New York, priority 2002, dated 2009)
“Also recorded” adds a separate entry of the source. Read-outs that look alike come from different tables or passages of the source.

Key:
LasR [1] = target: T1, LasR (Pseudomonas aeruginosa, UniProt P25084); experiment: lasI-gfp reporter agonist assay, PAO-JP2 (plasI-LVAgfp); format: cell-based, P. aeruginosa; settings: for agonist activity (induction of lasI-gfp reporter): PAO-JP2 (plasI-LVAgfp), compounds made in solution phase, increasing concentrations (1, 100, 400 μM)
T1 construct: endogenous in cells; host or cells: P. aeruginosa PAO-JP2 (lasI, rhlI) harboring plasI-LVAgfp
Excerpt: Since this strain lacks the ability to produce natural AIs due to disruption of both AI synthase genes, activation of LasR relies on the addition of exogenous AI1. Expression of gfp (encoding green fluorescent protein) is under control of the LasR-AI1 inducible lasI promoter, allowing rapid screening for LasR agonists by measuring the level of GFP expression in their presence.
(§1) P. aeruginosa strain PAO-JP2 (lasI, rhlI) (Rahme et al., Science 268:1899-1902 (1995), which is hereby incorporated by reference in its entirety) harboring plasI-LVAgfp (Pearson et al., Proc. Natl Acad. Sci. USA 91:197-201 (1994), which is hereby incorporated by reference in its entirety) was grown at 37° C. in LB with 300 μg/ml carbenicillin. For agonist assays, an overnight culture was diluted to an OD600 of 0.1 and transferred to wells of a 96-well plate on which test compounds had previously been added and dried. The final concentration of each analog tested was roughly 400 μM, although this is an overestimate due to purity issues. Cells were then incubated for 6 hours at 37° C. with vigorous shaking. GFP expression was detected with a Molecular Imager (BioRad) (488 nm excitation and 695 nm bandpass filter) and quantified with ImageQuant software. The OD600 of cultures was determined to normalize GFP expression to cell density.
(§2) Reporter strains were grown overnight in LB plus 300 μg/ml carbenicillin at 37° C. and diluted to an OD600 of 0.1. Following an incubation of 1 hour, 200 μl of cell culture was added to individual wells of a 96 well plate containing appropriate amount of test compound(s). Plates were incubated for 6 hours and then scanned for fluorescence emission with a Molecular Imager (488 nm excitation and 695 nm bandpass filter). Fluorescence was quantified with ImageQuant software.

RhlR [2] = target: T2, RhlR (Pseudomonas aeruginosa, UniProt P54292); format: cell-based, P. aeruginosa; settings: for AI2 agonist activity (induction of rhlI-gfp reporter): in the presence of 1 μM AI1, 10, 100, 400 μM analog
T2 construct: an RhlR-AI2 controlled rhlI-gfp reporter, PAO-JP2 (prhlI-LVAgfp); endogenous in cells; host or cells: P. aeruginosa PAO-JP2 (prhlI-LVAgfp)
Description: Thus, it was hypothesized that a 5- or 6-membered ring with a keto or hydroxyl group (or other hydrogen bond acceptor) adjacent to the amine is sufficient for both binding and activation of LasR. To test this hypothesis, the series of molecules shown in FIG. 13 (compounds 14) was synthesized.
as §2
The C4 compounds (A12 and 5-8) were analyzed for agonist activity using PAO-JP2 (prhlI-LVAgfp) (FIGS. 14C and D). Induction of GFP expression in this reporter requires addition of both AI1 and AI2. The AI2 control and agonist assays, therefore, were performed in the presence of 1 μM AI1 and increasing concentrations of AI2 or analog (FIGS. 14C and D).

PAO1 (pTdK-GFP) biofilm = experiment: static biofilm assay, PAO1 (pTdK-GFP); format: cell-based, P. aeruginosa
Description: (§3) Compound 3 was tested for its effect on biofilm development in a 24-hour assay that looks at the early stages of biofilm formation. […] Cultures were grown at 37° C. with shaking for 30 minutes, and then allowed to sit at 37° C. for an additional 23.5 hours. Coverslips were then rinsed and placed on slides for visualization using an MRC1024 Laser Scanning Microscope (BioRad) with a Nikon Fluor-60X oil emersion objective lens (NA=1.4), 488 nm Argon Laser and OG515 filter.
The same assay was run with strain PAO-1 (pTdK-GFP), and no exogenous autoinducers were added. […] The above results provide additional evidence that compound 3 interferes with QS signaling and reduces the production of important virulence factors.

pyocyanin [3] = experiment: pyocyanin assay, wild type strain PAO1; format: cell-based, P. aeruginosa PAO1; settings: wild type PAO1, no AIs added
Description: (§4) For the pyocyanin assay, cells were grown overnight in LB then washed in fresh media and diluted to an OD600 of 0.05. This culture was grown for 3-4 hours to mid-log phase (OD600 of 0.3-0.5), then diluted to an OD600 of 0.05, and aliquoted to test tubes containing an appropriate amount of test compound(s). Following 18 hours of growth, pyocyanin was extracted from filtered culture supernatants and quantified using standard methods (Essar et al., J. Bacteriol. 172:884-900 (1990), which is hereby incorporated by reference in its entirety).

Elastase B [4] = experiment: elastase (Elastin Congo Red) assay, wild type strain PAO1; format: cell-based, P. aeruginosa PAO1; settings: wild type PAO1, no exogenous autoinducers
Description: (§5) Pyocyanin, elastase, and biofilm were assayed as previously described (Smith et al., Chem. Biol. 10:81-89 (2003), which is hereby incorporated by reference in its entirety). Elastase activity produced by P. aeruginosa in the presence of AIs and competing 3-oxo-C12-D10 was determined by measuring breakdown of the substrate Elastin Congo Red.
(§6) For the elastase B assay, cells (PAO-JP2) were grown overnight in PTSB media (5% Peptone, 0.1% Tryptic Soy Broth) at 37° C., washed and diluted to an OD600 of 0.05, grown to mid-log phase, washed again, and re-suspended to an OD600 of 0.05. The culture was then added to test tubes containing test compound(s) and grown for 6 hours. Elastase B activity was quantified by incubation of 100 μl of filtered culture supernatant with 5 mg Elastin Congo Red substrate and 1 ml of 10 mM Tris pH 7.2, 1 mM CaCl2 for 6 hours at 37° C. with agitation. Elastase B activity is represented by the OD495 of the enzyme assay following reaction quenching with EDTA and centrifugation to remove unreacted substrate, divided by the OD600 of the cell culture. The same assay was run with strain PAO-1, however no exogenous autoinducers were added.

Elastase B [5] = experiment: elastase (Elastin Congo Red) assay, strain PAO-JP2; format: cell-based, P. aeruginosa PAO-JP2; settings: PAO-JP2, 10-100 μM compound, competing against 5 μM AI1 and 10 μM AI2
Description: as §5, §6

pyocyanin [6] = experiment: pyocyanin assay, strain PAO-JP2; format: cell-based, P. aeruginosa PAO-JP2; settings: PAO-JP2, 25 μM each of AI1 and AI2, 18 hours
Description: as §4

[7] = test system: PAO-JP2 (pTdK-GFP) biofilm; experiment: static biofilm assay, PAO-JP2 (pTdK-GFP); format: cell-based, P. aeruginosa; settings: PAO-JP2 (pTdK-GFP) with exogenous AIs, 24-hour static assay
Description: as §3

RhlR [8] = experiment: rhlI-gfp reporter antagonist assay, PAO-JP2 (prhlI-LVAgfp); format: cell-based, P. aeruginosa; settings: competing against 1 μM AI1 and 10 μM AI2
Description: Each compound in the library was tested for antagonist activity using the same reporter strain, PAO-JP2 (plasI-LVAgfp) (de Kievit et al., Appl. Environ. Microbiol. 67:865-1873 (2001), which is hereby incorporated by reference in its entirety) to find compounds that could compete against AI1 and reduce GFP expression. The methods were the same as described in Example 2 (GFP Reporter Assay), except that 1 μM AI1 was added to each well in combination with the library compound. The fluorescence/OD600 of each compound competing against AI1 was reported relative to the fluorescence/OD600 of the positive control of AI1 alone, which was set to 1. When strain PAO-JP2 (prhlI-LVAgfp) was used, the positive control was 1 μM AI1 and 10 μM AI2.
3- oxo-C12-D10 was synthesized in solution phase, where the natural side chain was coupled with D10 and purified by chromatography. To determine if the same structural motif can be applied to inhibition of the RhlR-AI2 interaction, C4-D10 was also synthesized. Assays were performed with both the lasI-gfp reporter PAO-JP2 (plasI-LVAgfp) and an RhlR-AI2 controlled rhlI-gfp reporter, PAO-JP2 (prhlI-LVAgfp) (FIGS. 10A-C) (de Kievit et al., Appl. Environ. Microbiol. 67:865-1873 (2001), which is hereby incorporated by reference in its entirety).
as §2
Next the ability of 2 and 3 to inhibit the rhlI-gfp reporter strain PAO-JP2 (prhlI-LVAgfp) was tested, since this expression is also AI1-dependent.

LasR [9] = target: T1, LasR; experiment: lasI-gfp reporter antagonist (competition against AI1) assay, PAO-JP2 (plasI-LVAgfp); format: cell-based, P. aeruginosa; settings: for reduction of GFP expression (lasI-gfp): 1 μM AI1
Description: as §1
The methods were the same as described in Example 2 (GFP Reporter Assay), except that 1 μM AI1 was added to each well in combination with the library compound. The fluorescence/OD600 of each compound competing against AI1 was reported relative to the fluorescence/OD600 of the positive control of AI1 alone, which was set to 1. When strain PAO-JP2 (prhlI-LVAgfp) was used, the positive control was 1 μM AI1 and 10 μM AI2. Eight compounds that inhibited reporter gene expression by greater than 50% were identified (see, e.g., FIG. 6).
as §2

lac promoter = experiment: GFP expression from lac promoter, PAO-JP2 (pTdK-GFP) (specificity control); format: cell-based, P. aeruginosa; settings: lasI promoter replaced with a lac promoter
LasR [10] = target: T1, LasR; experiment: lasB-lacZ reporter assay, E. coli MG4 (pKDT37); format: cell-based, P. aeruginosa
Description: E. coli strain MG4 (pKDT37) was grown overnight in Supplemented A media with 100 μg/mL ampicillin at 30° C. and diluted 1:100 in the same media. 1 mL of this culture was added to a test tube containing AI1 or 3-oxo-C12-D12 that had been previously aliquoted and dried. Following a 6 hour incubation at 30° C., β-galactosidase activity was determined using standard methods (Platt et al., Assays of the lac operon Enzymes In: Experiments in Molecular Genetics, Cold Spring Harbor Laboratory Press, Cold Spring Harbor, N.Y., pp. 352-355 (1972), which is hereby incorporated by reference in its entirety).
One of the new agonist structures identified from the library, D12, is 2-aminocyclohexanol (FIG. 5B). […] 3-oxo-C12-D12, containing the natural side chain, was synthesized in solution phase, and tested with both the lasI-gfp reporter as well as a lasB-lacZ reporter in Escherichia coli. E. coli strain MG4 harboring plasmid pKDT37 expresses lasR and contains a lacZ reporter gene controlled by a LasR-AI1 inducible lasB promoter (Passador et al., J. Bacteriol. 178:5995-6000 (1996), which is hereby incorporated by reference in its entirety). […] It also provides strong evidence that the agonist activity in P. aeruginosa is LasR dependent.

T2 sequence (P54292 whole entry): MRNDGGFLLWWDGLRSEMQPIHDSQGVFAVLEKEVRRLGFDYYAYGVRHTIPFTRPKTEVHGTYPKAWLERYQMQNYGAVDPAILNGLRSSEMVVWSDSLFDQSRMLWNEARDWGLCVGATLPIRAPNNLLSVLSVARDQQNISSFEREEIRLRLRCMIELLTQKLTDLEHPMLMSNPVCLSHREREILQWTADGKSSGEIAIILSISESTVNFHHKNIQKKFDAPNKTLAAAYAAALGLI
T1 sequence (P25084 whole entry): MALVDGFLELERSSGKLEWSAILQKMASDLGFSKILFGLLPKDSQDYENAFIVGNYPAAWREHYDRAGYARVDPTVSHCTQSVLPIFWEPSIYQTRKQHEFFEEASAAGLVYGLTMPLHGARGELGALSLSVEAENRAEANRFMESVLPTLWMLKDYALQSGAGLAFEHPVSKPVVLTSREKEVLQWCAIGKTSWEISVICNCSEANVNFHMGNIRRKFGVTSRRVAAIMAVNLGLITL

Structure (SMILES): CCCCCCCCCC(=O)CC(=O)NC1CCCC1=O (stereo not shown) [Compound 1, N-(2-oxocyclopentyl)-3-oxododecanamide]
- agonist activity (induction of lasI-gfp reporter) (LasR [1]): able to induce the reporter only at a very high concentration; also recorded: weak agonist

Structure (SMILES): CCCC(=O)NC1CCCCC1=O (stereo not shown) [Compound 7, N-2-oxocyclohexylbutanamide]
- AI2 agonist activity (induction of rhlI-gfp reporter) (RhlR [2]): strong agonist activity

Structure (SMILES): CCCCCCCCCC(=O)CC(=O)Nc1ccccc1O [3-oxo-C12-D10]
- effect on biofilm morphology (PAO1 (pTdK-GFP) biofilm; wild type PAO1): fluffy
- effect on biofilm formation (PAO1 (pTdK-GFP) biofilm; wild type PAO1, no exogenous autoinducers): did not interfere with biofilm formation
- effect on pyocyanin production (pyocyanin [3]): not able to interfere with pyocyanin production
- effect on elastase activity (Elastase B [4]): reduced elastase activity
- reduction of elastase activity (Elastase B [5]): approximately 50%
- effect on pyocyanin production (pyocyanin [6]): not able to interfere with pyocyanin production
- effect on biofilm formation [7]: slightly enhanced rather than inhibited
- inhibition of GFP expression (rhlI-gfp) (RhlR [8]; 50 μM compound): more than 80%
- las circuit inhibition, comparison of potency (LasR [9]): more potent than 3
- reduction of GFP expression (lasI-gfp) (LasR [9]; 10 μM compound): approximately 60%
- reduction of GFP expression (lasI-gfp) (LasR [9]; 100 μM compound): ~90%

Structure (SMILES): CCCC(=O)N[C@@H]1CCCC[C@H]1O (relative stereo) [Compound 8, N-(trans-2-hydroxy)cyclohexylbutanamide]
- GFP expression (rhlI-gfp) (RhlR [2]; 400 μM analog, 1 μM AI1): moderate GFP expression
- AI2 agonist activity (induction of rhlI-gfp reporter) (RhlR [2]): very little AI2 agonist activity

Structure (SMILES): CCCCCCCCCC(=O)CC(=O)N[C@@H]1CCC[C@H]1O (relative stereo) [Compound 2, N-(trans-2-hydroxycyclopentyl)-3-oxododecanamide]
- inhibition of GFP expression from lac promoter (lac promoter): inability to inhibit GFP expression
- agonist activity (induction of lasI-gfp reporter) (LasR [1]): nearly unable to induce the reporter
- antagonist activity on rhlI-gfp reporter (RhlR [8]): no antagonist activity

Structure (SMILES): CCCCCCCCCC(=O)CC(=O)N[C@@H]1CCCC[C@H]1O (relative stereo) [Compound 4, N-(trans-2-hydroxycyclohexyl)-3-oxododecanamide]
- agonist activity (induction of lasI-gfp reporter) (LasR [1]): strong agonist activity; also recorded: strongest agonist
- agonist activity (induction of lasI-gfp reporter) (LasR [1]; listed as 3-oxo-C12-D12): activated
- GFP induction, fold less than AI1 (LasR [1]; at 1 μM): 2 fold
- GFP induction compared with AI1 (LasR [1]; at higher concentrations (100, 400 μM)): comparable to AI1
- lasB-lacZ reporter activation (beta-galactosidase activity) (LasR [10]; E. coli MG4 (pKDT37), 6 hour incubation): activated
- LasR inducing activity compared with natural AI1 (LasR [10]; lasI-gfp and lasB-lacZ reporters (FIG. 9)): comparable to the natural AI1

Structure (SMILES): CCCC(=O)NC1CCCC1=O (stereo not shown) [Compound 5, N-2-oxocyclopentylbutanamide]
- AI2 agonist activity (induction of rhlI-gfp reporter) (RhlR [2]): strong agonist activity

Structure (SMILES): CCCC(=O)N[C@@H]1CCC[C@H]1O (relative stereo) [Compound 6, N-(trans-2-hydroxy)cyclopentylbutanamide]
- AI2 agonist activity (induction of rhlI-gfp reporter) (RhlR [2]): no agonist activity
- AI2 agonist activity (induction of rhlI-gfp reporter) (RhlR [2]; listed as C4-(2-aminocylcopentanol)): could not activate RhlR
- antagonist activity on rhlI-gfp reporter (RhlR [8]): no inhibition
